Type in all cases: in vivo
Common to all, as to details: 312 h, evaluated after 13 days, 100=total damage to plant, 0=no damage to plant

Test [1] concerns Ipomoea hederacea (IPOHE). Nature of the test: Post-emergence biological efficacy. How it is done:
(§1) Seeds of weeds and/or crops were sown in standard soil in pots (Amaranthus palmeri (AMAPA), Chenopodium album (CHEAL), Euphorbia heterophylla (EPHHL), Ipomoea hederacea (IPOHE), Eleusine indica (ELEIN), Lolium perenne (LOLPE), Digitaria sanguinalis (DIGSA), Setaria faberi (SETFA), Echinochloa crus-galli (ECHCG)). After cultivation for 14 days under controlled conditions in a glasshouse (at 24/19° C., day/night; 16 hours light), the plants were sprayed with an aqueous spray solution derived from the formulation of the technical active ingredient in a small amount of acetone and a special solvent and emulsifier mixture referred to as IF50 (11.12% Emulsogen EL360™+44.44% N-methylpyrrolidone+44.44% Dowanol DPM glycol ether), to create a 50 g/l solution which was then diluted using 0.2% Genapol XO80 as diluent to give the desired final dose of test compound. The test plants were then grown under controlled conditions in the glasshouse (at 24/18° C., day/night; 15 hours light; 50% humidity) and watered twice daily. After 13 days the test was evaluated (100=total damage to plant; 0=no damage to plant).

Test [2] relates to Euphorbia heterophylla (EPHHL). Nature of the test: Post-emergence biological efficacy. How it is done: as §1
For test [3], the system named is Amaranthus palmeri (AMAPA). The test can be described thus: Post-emergence biological efficacy. How it is done:
as §1

The next test deals with Eleusine indica (ELEIN). The test can be described thus: Post-emergence biological efficacy. How it is done: as §1
Test [4] has as its system Setaria faberi (SETFA). Nature of the test: Post-emergence biological efficacy. How it is done: as §1
For test [5], the system named is Chenopodium album (CHEAL). Nature of the test: Post-emergence biological efficacy. How it is done: as §1
For test [6], the system named is Lolium perenne (LOLPE). Nature of the test: Post-emergence biological efficacy. How it is done:
as §1

Test [7] concerns Echinochloa crus-galli (ECHCG). Nature of the test: Post-emergence biological efficacy. How it is done:
as §1

For test [8], the system named is Digitaria sanguinalis (DIGSA). The test can be described thus: Post-emergence biological efficacy. How it is done: as §1
The subject of test [9] is Ipomoea hederacea (IPOHE). Nature of the test: Pre-emergence biological efficacy. How it is done: (§2) Seeds of weeds and/or crops were sown in standard soil in pots (Amaranthus palmeri (AMAPA), Lolium perenne (LOLPE), Euphorbia heterophylla (EPHHL), Ipomoea hederacea (IPOHE), Setaria faberi (SETFA), Echinochloa crus-galli (ECHCG)). After cultivation for one day under controlled conditions in a glasshouse (at 24/19° C., day/night; 16 hours light), the plants were sprayed with an aqueous spray solution derived from the formulation of the technical active ingredient in a small amount of acetone and a special solvent and emulsifier mixture referred to as IF50 (11.12% Emulsogen EL360™+44.44% N-methylpyrrolidone+44.44% Dowanol DPM glycol ether), to create a 50 g/l solution which was then diluted using 0.2% Genapol XO80 as diluent to give the desired final dose of test compound.
(§3) The test plants were then grown under controlled conditions in the glasshouse (at 24/18° C., day/night; 15 hours light; 50% humidity) and watered twice daily. After 13 days the test was evaluated (100=total damage to plant; 0=no damage to plant).

Test [10] concerns Euphorbia heterophylla (EPHHL). The test can be described thus: Pre-emergence biological efficacy. How it is done:
as §2, §3

The subject of test [11] is Amaranthus palmeri (AMAPA). The test can be described thus: Pre-emergence biological efficacy. How it is done: as §2, §3
Test [12] concerns Setaria faberi (SETFA). The test can be described thus: Pre-emergence biological efficacy. How it is done: as §2, §3
Test [13] relates to Lolium perenne (LOLPE). The test can be described thus: Pre-emergence biological efficacy. How it is done: as §2, §3
The test system of test [14] is Echinochloa crus-galli (ECHCG). The test can be described thus: Pre-emergence biological efficacy. How it is done: as §2, §3

On to `CCOC(=O)[C@H]1C[C@@H](OC(=O)c2cc(-n3c(=O)n(C)c(=S)n(C)c3=O)c(F)cc2Cl)C1` [1-981 (cis), (cis)-(3-Ethoxycarbonylcyclobutyl) 2-chloro-5-(3,5-dimethyl-2,6-dioxo-4-thioxo-1,3,5-triazinan-1-yl)-4-fluoro-benzoate], for which the pest or weed control at 250 g/ha in test [1] was determined as 50%; in [2], 60%; in [3], 80%; with Eleusine indica (ELEIN) it was 50%; in the test on Setaria faberi (SETFA) [4], 100%; in test [5], 100%. Moreover, the pest or weed control at 250 g/ha turned out to be 70% with Lolium perenne (LOLPE) [6]; 80% in [7]; 50% in test [8]; 70% in test [9]; 50% in test [10]; 100% in [11]. In addition, the values for the pest or weed control at 250 g/ha (in the test on Setaria faberi (SETFA) [12]; with Lolium perenne (LOLPE) [13]; in test [14]) were 50%, 80% and 100%, respectively.

Regarding `CCOC(=O)COC(=O)c1cc(-n2c(=O)n(C)c(=S)n(C)c2=O)c(F)cc1Cl` [Compound 1-12, (2-ethoxy-2-oxo-ethyl]-2-chloro-5-(3,5-dimethyl-2,6-dioxo-4-thioxo-1,3,5-triazinan-1-yl)-4-fluoro-benzoate], the pest or weed control at 250 g/ha (in test [1]; in test [2]; in [3]; in the test on Eleusine indica (ELEIN); in the test with Setaria faberi (SETFA) [4]; in test [5]) was 100% in each case. Moreover, the pest or weed control at 250 g/ha with Lolium perenne (LOLPE) [6] came to 100%; in test [7] it was 100%; in test [8], 100%; in test [9], 80%; in test [10], 90%; in [11], 100%. Besides, the figures for the pest or weed control at 250 g/ha (with Setaria faberi (SETFA) [12]; in the test with Lolium perenne (LOLPE) [13]; in [14]) were 80%, 90% and 90%, respectively.

On to `COC(=O)CNC(=O)c1cc(-n2c(=O)n(C)c(=S)n(C)c2=O)c(F)cc1Cl` [Compound 1-35, Methyl 2-[[2-chloro-5-(3,5-dimethyl-2,6-dioxo-4-thioxo-1,3,5-triazinan-1-yl)-4-fluoro-benzoyl]amino]acetate], for which the pest or weed control at 250 g/ha in test [1] turned out to be 50%; in test [2], 70%; in [3], 30%; in the test with Eleusine indica (ELEIN) it was 40%; in the test with Setaria faberi (SETFA) [4], 40%; in test [5], 20%. For the same compound, the pest or weed control at 250 g/ha in the test on Lolium perenne (LOLPE) [6] was 10%; in [7], 40%; in [8], 40%; in test [9] it was 0%; in [10] it was 40%; in test [11], 30%. In addition, the pest or weed control at 250 g/ha in the test on Setaria faberi (SETFA) [12] is 10%; in the test on Lolium perenne (LOLPE) [13] it was 70%; in test [14], 80%.

On to `CCOC(=O)C1(N(C)C(=O)c2cc(-n3c(=O)n(C)c(=S)n(C)c3=O)c(F)cc2Cl)CC1` [Compound 1-252, Ethyl 1-[[2-chloro-5-(3,5-dimethyl-2,6-dioxo-4-thioxo-1,3,5-triazinan-1-yl)-4-fluoro-benzoyl]-methyl-amino]cyclopropanecarboxylate], for which the pest or weed control at 250 g/ha in test [1] is 30%; in [2] it was 40%; in test [3], 50%; in the test on Eleusine indica (ELEIN), 50%; in the test on Setaria faberi (SETFA) [4], 0%; in [5], 70%. In addition, the pest or weed control at 250 g/ha amounted to 40% in the test with Lolium perenne (LOLPE) [6], 0% in test [7], 0% in test [8] and 100% in test [11].

For orientation: pest or weed control means the degree to which the test organism was suppressed or injured, in per cent. Lower therefore signals a weak effect.

Source of the values: patent US20250127170A1, “TRIAZINE HERBICIDAL COMPOUNDS” (SYNGENTA CROP PROTECTION AG, priority 2021, published 2025).
